Data reported in patent US5393742A, “Preparation for treating renal disease” (MECT Corporation, priority 1990, dated 1995).
Where two headings read alike, the source gives them in different places.

Experiments:
[1] = tested on: Puromycin aminonucleoside (PAN) induced nephritis; type: in vivo, Male Sprague-Dawley (SD) rats
Method: Effect on Puromycin aminonucleoside (PAN) induced nephritis, i.e. PAN induced nephrosis or nephrotic syndrome:
Male Sprague-Dawley (SD) rats weighing 160-180 g were used.
As the nephritis, i.e. nephrosis or nephrotic syndrome, causing substance, PAN (made by Sigma Co., Ltd.) was used. As the test compound, sodium N-acetylneuraminate (made by MECT Corporation) was used.
PAN was intraperitoneally administered in an amount of 80 mg per 1 kg of body weight to rats to cause nephritis, i.e. nephrosis or nephrotic syndrome. Then, the test compound (Groups I, II or III) or physiological saline solution (Group IV) was intraperitoneally administered 3 times a day (morning, noon and evening) for 14 consecutive days immediately after treatment with PAN as follows. As a positive control, methylprednisolone was subcutaneously administered to rats of Group V once a day (noon) for 14 consecutive days immediately after treatment with PAN. Moreover, 3, 6, 9 and 13 days after treatment with PAN, 5 ml water was loaded, and the urine was collected for 6 hours. Fourteen days after treatment with PAN, autopsies were made, the kidneys were extirpated and their moist weights were measured.
Group I: 0.1 mg Sodium N-acetylneuraminate per 1 kg of body weight was administered.
Group II: 0.5 mg Sodium N-acetylneuraminate per 1 kg of body weight was administered.
Group III: 1.0 mg Sodium N-acetylneuraminate per 1 kg of body weight was administered.
Group IV: 2.5 ml Physiological saline solution per 1 kg of body weight was administered.
Group V: 2 mg Methylprednisolone per 1 kg of body weight was administered.
Group VI: Normal rats (no drug was given).
Regarding the results of therapeutic effect for treating renal disease (nephrotic syndrome) of the given NANA compound per Example 1 above, it will be appreciated that the test compound sodium N-acetylneuraminate (Groups I, II and III) was dissolved in physiological saline and intraperitoneally administered, compared to intraperitoneal administration of physiological saline alone (Group IV) and subcutaneous administration of methylprednisolone (Group V).

[2] = tested on: Male ddy mice; assay: Simplified acute toxicity test of N-acetylneuraminates in mice by intravenous injection; type: in vivo
Method: Simplified acute toxicity test:
A simplified acute toxicity test of N-acetylneuraminates in mice by intravenous injection was carried out as follows.
Lithium-, potassium-, barium- and magnesium- salts of N-acetylneuraminic acid were used (all were from MECT Corporation).
Body weights at the start of the test: 17.7-21.1 g
The number of animals at each level: 3 mice
(3) Room temperature: 23±1° C. - Humidity: 55±7%
The above-mentioned test compounds were dissolved in physiological saline solution to make a 0.2 ml solution per 20 g of body weight in a mouse as an injection fluid and injected into the tail vein. The doses were 500, 1,000 and 2,000 mg/kg.

[3] = 2.0 mg/kg s.c., once a day, 14 days after PAN, positive control

| SMILES | The number of deaths per day course ([2]; 500 mg/kg i.v., 1 hrs) | The number of deaths per day course ([2]; 500 mg/kg i.v., 3 hrs) | The number of deaths per day course ([2]; 500 mg/kg i.v., 6 hrs) | The number of deaths per day course ([2]; 500 mg/kg i.v., 24 hrs) | The number of deaths per day course ([2]; 500 mg/kg i.v., 2 days) | The number of deaths per day course ([2]; 500 mg/kg i.v., 3 days) | The number of deaths per day course ([2]; 500 mg/kg i.v., 4 days) | The number of deaths per day course ([2]; 500 mg/kg i.v., 5 days) | The number of deaths per day course ([2]; 500 mg/kg i.v., 6 days) | Final Lethality ([2]; 500 mg/kg i.v., 7 days) | The number of deaths per day course ([2]; 500 mg/kg i.v., 7 days) | Final Lethality ([2]; 1000 mg/kg i.v., 7 days) | The number of deaths per day course ([2]; 1000 mg/kg i.v., 7 days) | The number of deaths per day course ([2]; 1000 mg/kg i.v., 1 hrs) | The number of deaths per day course ([2]; 1000 mg/kg i.v., 3 hrs) | The number of deaths per day course ([2]; 1000 mg/kg i.v., 6 hrs) | The number of deaths per day course ([2]; 1000 mg/kg i.v., 24 hrs) | The number of deaths per day course ([2]; 1000 mg/kg i.v., 2 days) | The number of deaths per day course ([2]; 1000 mg/kg i.v., 3 days) | Final Lethality ([2]; 2000 mg/kg i.v., 7 days) | also measured |
| --- | --- | --- | --- | --- | --- | --- | --- | --- | --- | --- | --- | --- | --- | --- | --- | --- | --- | --- | --- | --- | --- |
| C[C@]12C=CC(=O)C=C1CC[C@@H]1[C@@H]2[C@@H](O)C[C@@]2(C)[C@H]1CC[C@]2(O)C(=O)CO [prednisolone, reference compound] | – | – | – | – | – | – | – | – | – | – | – | – | – | – | – | – | – | – | – | – | Effect on increase of kidney moist weight (in words) ([1]; PAN rats, 14 days): inhibits increase in kidney moist weight |
| CC(=O)N[C@H]1[C@H]([C@H](O)[C@H](O)CO)OC(O)(C(=O)[O-])C[C@@H]1O.[Li+] (stereo partly drawn) [Lithium N-acetylneuraminate] | 0 | 0 | 0 | 0 | 0 | 0 | 0 | 0 | 0 | 0/3 | 0 | 0/3 | 0 | 0 | 0 | 0 | 0 | 0 | 0 | 0/3 | The number of deaths per day course ([2]; 1000 mg/kg i.v., 4 days): 0; The number of deaths per day course ([2]; 1000 mg/kg i.v., 5 days): 0; The number of deaths per day course ([2]; 1000 mg/kg i.v., 6 days): 0; The number of deaths per day course ([2]; 2000 mg/kg i.v., 7 days): 0; The number of deaths per day course ([2]; 2000 mg/kg i.v., 1 hrs): 0; The number of deaths per day course ([2]; 2000 mg/kg i.v., 3 hrs): 0; The number of deaths per day course ([2]; 2000 mg/kg i.v., 6 hrs): 0; The number of deaths per day course ([2]; 2000 mg/kg i.v., 24 hrs): 0; The number of deaths per day course ([2]; 2000 mg/kg i.v., 2 days): 0; The number of deaths per day course ([2]; 2000 mg/kg i.v., 3 days): 0; The number of deaths per day course ([2]; 2000 mg/kg i.v., 4 days): 0; The number of deaths per day course ([2]; 2000 mg/kg i.v., 5 days): 0; The number of deaths per day course ([2]; 2000 mg/kg i.v., 6 days): 0 |
| CC(=O)N[C@H]1[C@H]([C@H](O)[C@H](O)CO)OC(O)(C(=O)O)C[C@@H]1O (stereo partly drawn) [Magnesium N-acetylneuraminate] | 0 | 0 | 0 | 0 | 0 | 0 | 0 | 0 | 0 | 0/3 | 0 | 3/3 | – | – | – | – | – | – | – | 3/3 | Deaths (in words) ([2]; 1,000 and 2,000 mg/kg i.v.): all of the 3 mice died |
| C[C@H]1C[C@@H]2[C@H]([C@@H](O)C[C@@]3(C)[C@H]2CC[C@]3(O)C(=O)CO)[C@@]2(C)C=CC(=O)C=C12 [Methylprednisolone, methylprednisolone, reference compound] | – | – | – | – | – | – | – | – | – | – | – | – | – | – | – | – | – | – | – | – | Kidney Moist Weight [1, 3]: 0.43 ± 0.01 g/100 g; Weight Gain Rate [1, 3]: 107.7 ± 1.6%; Urinary Protein Content ([1]; 3rd Day, 2.0 mg/kg s.c., once a day): 22.3 ± 2.1 mg/24 hours; Urinary Protein Content ([1]; 6th Day, 2.0 mg/kg s.c., once a day): 55.8 ± 11.4 mg/24 hours; Urinary Protein Content ([1]; 9th Day, 2.0 mg/kg s.c., once a day): 68.7 ± 13.1 mg/24 hours; Urinary Protein Content ([1]; 13th Day, 2.0 mg/kg s.c., once a day): 56.1 ± 12.5 mg/24 hours; Effect on weight gain (in words) ([1]; PAN rats, 14 days): greater inhibition of weight gain; Effect on increase in urinary protein content (in words) ([1]; PAN rats, 6th, 9th and 13th day): inhibits increase in urinary protein content; Systemic side effect (in words) ([1]; rat, in vivo): greater systemic side effect |
| CC(=O)N[C@H]1[C@H]([C@H](O)[C@H](O)CO)OC(O)(C(=O)[O-])C[C@@H]1O.[K+] (stereo partly drawn) [Potassium N-acetylneuraminate] | 0 | 0 | 0 | 0 | 0 | 0 | 0 | 0 | 0 | 0/3 | 0 | 3/3 | 0 | 3 | 0 | 0 | 0 | 0 | 0 | 3/3 | The number of deaths per day course ([2]; 1000 mg/kg i.v., 4 days): 0; The number of deaths per day course ([2]; 1000 mg/kg i.v., 5 days): 0; The number of deaths per day course ([2]; 1000 mg/kg i.v., 6 days): 0; The number of deaths per day course ([2]; 2000 mg/kg i.v., 7 days): 0; The number of deaths per day course ([2]; 2000 mg/kg i.v., 1 hrs): 3; The number of deaths per day course ([2]; 2000 mg/kg i.v., 3 hrs): 0; The number of deaths per day course ([2]; 2000 mg/kg i.v., 6 hrs): 0; The number of deaths per day course ([2]; 2000 mg/kg i.v., 24 hrs): 0; The number of deaths per day course ([2]; 2000 mg/kg i.v., 2 days): 0; The number of deaths per day course ([2]; 2000 mg/kg i.v., 3 days): 0; The number of deaths per day course ([2]; 2000 mg/kg i.v., 4 days): 0; The number of deaths per day course ([2]; 2000 mg/kg i.v., 5 days): 0; The number of deaths per day course ([2]; 2000 mg/kg i.v., 6 days): 0; Deaths (in words) ([2]; 1,000 and 2,000 mg/kg i.v.): all of the 3 mice died |
| CC(=O)N[C@H]1[C@H]([C@H](O)[C@H](O)CO)OC(O)(C(=O)O)C[C@@H]1O (stereo partly drawn) [Barium N-acetylneuraminate] | 3 | 0 | 0 | 0 | 0 | 0 | 0 | 0 | 0 | 3/3 | 0 | 3/3 | 0 | 3 | 0 | 0 | 0 | 0 | 0 | 3/3 | Deaths (in words) ([2]; 500 mg/kg i.v.): all 3 of the 3 mice; The number of deaths per day course ([2]; 1000 mg/kg i.v., 4 days): 0; The number of deaths per day course ([2]; 1000 mg/kg i.v., 5 days): 0; The number of deaths per day course ([2]; 1000 mg/kg i.v., 6 days): 0; The number of deaths per day course ([2]; 2000 mg/kg i.v., 7 days): 0; The number of deaths per day course ([2]; 2000 mg/kg i.v., 1 hrs): 3; The number of deaths per day course ([2]; 2000 mg/kg i.v., 3 hrs): 0; The number of deaths per day course ([2]; 2000 mg/kg i.v., 6 hrs): 0; The number of deaths per day course ([2]; 2000 mg/kg i.v., 24 hrs): 0; The number of deaths per day course ([2]; 2000 mg/kg i.v., 2 days): 0; The number of deaths per day course ([2]; 2000 mg/kg i.v., 3 days): 0; The number of deaths per day course ([2]; 2000 mg/kg i.v., 4 days): 0; The number of deaths per day course ([2]; 2000 mg/kg i.v., 5 days): 0; The number of deaths per day course ([2]; 2000 mg/kg i.v., 6 days): 0; Deaths (in words) ([2]; 1,000 and 2,000 mg/kg i.v.): all of the 3 mice died |
